Here are results for 1 substance from patent US20230233484A1, “USE OF VITAMIN K IN PREVENTING OR COU[…]-19 DISEASE AND DIAGNOSTIC TEST TO ESTIMATE THE RISK OF […] DISEASE OR MORTALITY BY COVID-19” (EMPHYSEMA SOLUTIONS BV, priority 2020, published 2023).

Data set [1] has as its system dp-ucMGP. As to conditions: vitamin K supplementation; cited from earlier work.
Data set [2] has as its system Covid-19. Briefly: Ongoing intervention trial of vitamin K administration in Covid-19 patients. As to conditions: twelve Covid-19 patients have received treatment. Type of data set: in vivo. The source says: (§1) Procoagulant prothrombin activation by vitamin K remained preserved in the majority of Covid-19 patients. Impaired MGP activation was linked to accelerated elastic fiber degradation and premorbid vascular calcifications. About fifty percent of total anticoagulant protein S is activated extra-hepatically by vitamin K, and this activation is likely also impaired during Covid-19. Given the fact that procoagulant activity remains intact, this is compatible with the increased thrombogenicity that is frequently observed in severe Covid-19. Based on our findings we expect that increasing MGP and protein S activity by vitamin K administration will considerably improve Covid-19 outcomes. An intervention trial to confirm this hypothesis is currently ongoing.

Data set [3] concerns Covid-19. Put plainly: Cohort of hospitalized COVID-19 patients treated with vitamin K, compared with previous COVID-19 cohorts. Type of data set: in vivo. The note with it: hospitalized COVID-19 cohort treated with vitamin K vs previous COVID-19 cohorts from the same hospital.
Source text: as §1

dp-ucMGP, sequence (P08493 20-96): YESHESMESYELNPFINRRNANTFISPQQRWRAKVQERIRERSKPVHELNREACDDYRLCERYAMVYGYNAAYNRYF

With vitamin K, the “effect on dp-ucMGP levels” value in data set [1] is “reducing effect”. Moreover, the safety issues entry in data set [2] was “no unexpected safety issues”. In data set [3], the ICU admission rate entry is “significantly lower” and the mortality result is “significantly lower”.
